Non-standard residues stand in square brackets, D forms with d. Residues, ends and D or L forms follow the SMILES beside them. *: point of attachment. dPhe(4-NHCONH2) = NC(=O)Nc1ccc(C[C@@H](N)C(=O)O)cc1; Phe(4-NHCONH2) = NC(=O)Nc1ccc(C[C@H](N)C(=O)O)cc1; Dihydroorotyl(S) = O=C1C[C@@H](C(=O)*)NC(=O)N1; dPhe(4-NH2) = Nc1ccc(C[C@@H](N)C(=O)O)cc1; dPhe(4-Cl) = N[C@H](Cc1ccc(Cl)cc1)C(=O)O; Phe(4-NH2) = Nc1ccc(C[C@H](N)C(=O)O)cc1; d2Nal = N[C@H](Cc1ccc2ccccc2c1)C(=O)O; Lys(iPr) = CC(C)NCCCC[C@H](N)C(=O)O; d3Pal = N[C@H](Cc1cccnc1)C(=O)O
How the values were obtained:
[1] = examination of injected rats for tolerance and gelling at the point of injection; assay type: in vivo; settings: 50 μg per rat sc
[2] = water solubility compared with Acyline; assay type: physicochemical
secretion of LH = experiment: in vivo rat LH suppression test (circulating LH levels in castrated male rats after sc injection); parameters: species or system castrated male Sprague-Dawley rats; settings: 50 micrograms sc
Description: The peptide is assayed in vivo to determine its effectiveness to suppress the secretion of LH in rats. Measurement of circulating LH levels in castrated male Sprague-Dawley rats treated subcutaneously with the peptide is carried out as reported in C. Rivier et al. Biol. Reproduc., 1983, 29, 374-378. The peptides are first dissolved at a concentration of 1.0 or 10 mg/ml in bacteriostatic water and then further diluted in 0.04 M phosphate buffer containing 0.1% BSA. Subsequent dilutions are made in phosphate buffer. The peptides are injected sc into 5 rats, and blood samples (300 μl) are collected under metotane anesthesia. Sera (50 μl) are tested for LH levels in duplicate using reagents provided by the National Pituitary and Hormone Distribution Program of the NIDDK.

water solubility compared with Acyline [2] | SMILES | gelling at the point of injection [1] | tolerance of the peptide in injected rats [1] | duration of bioactivity for the suppression of LH (rating in words) (secretion of LH) | suppression of LH compared with Acyline at 96 hours / 4 days (after day 3) (secretion of LH; 96 hours) | effectiveness in suppression of LH compared with Acyline, day 1 through day 3 (secretion of LH; days 1-3) | effectiveness in suppression of LH compared with Acyline, first two days (secretion of LH; days 1-2) | suppression of LH compared with Acyline at days 3 and 4 (72 and 96 hours; after the first 2 days) (secretion of LH; days 3-4)
– | CC(=O)N[C@H](Cc1ccc2ccccc2c1)C(=O)N[C@H](Cc1ccc(Cl)cc1)C(=O)N[C@H](Cc1cccnc1)C(=O)N[C@@H](CO)C(=O)N[C@@H](Cc1ccc(NC(=O)[C@@H]2CC(=O)NC(=O)N2)cc1)C(=O)N[C@H](Cc1ccc(NC(N)=O)cc1)C(=O)N[C@@H](CC(C)C)C(=O)N[C@@H](CCCCNC(C)C)C(=O)N1CCC[C@H]1C(=O)N[C@H](C)C(N)=O [Example 1, Ac-D-2Nal-(4Cl)D-Phe-D-3Pal-Ser-4Aph(hydroorotyl)-D-4Aph(carbamoyl)-Leu-Lys(isopropyl)-Pro-D-Ala-NH2] (Ac-[d2Nal][dPhe(4-Cl)][d3Pal]S[Phe(4-NH2)](Dihydroorotyl(S))[dPhe(4-NHCONH2)]L[Lys(iPr)]P[dA]-NH2) | no significant gelling | very well tolerated | – | – | – | – | –
more water soluble than Acyline | CC(=O)Nc1ccc(C[C@H](NC(=O)[C@H](CO)NC(=O)[C@@H](Cc2cccnc2)NC(=O)[C@@H](Cc2ccc(Cl)cc2)NC(=O)[C@@H](Cc2ccc3ccccc3c2)NC(C)=O)C(=O)N[C@H](Cc2ccc(NC(N)=O)cc2)C(=O)N[C@@H](CC(C)C)C(=O)N[C@@H](CCCCNC(C)C)C(=O)N2CCC[C@H]2C(=O)N[C@H](C)C(N)=O)cc1 [Example 1P, Ac-β-D-2Nal-D-4Cpa-D-3Pal-Ser-4Aph(Ac)-D-4Aph(carbamoyl)-Leu-Lys(isopropyl)-Pro-D-Ala-NH2] (Ac-[d2Nal][dPhe(4-Cl)][d3Pal]S[Phe(4-NH2)](Ac)[dPhe(4-NHCONH2)]L[Lys(iPr)]P[dA]-NH2) | – | – | long duration | slightly superior to Acyline | substantially the same as Acyline | – | –
more water soluble than Acyline | CC(=O)Nc1ccc(C[C@@H](NC(=O)[C@H](Cc2ccc(NC(N)=O)cc2)NC(=O)[C@H](CO)NC(=O)[C@@H](Cc2cccnc2)NC(=O)[C@@H](Cc2ccc(Cl)cc2)NC(=O)[C@@H](Cc2ccc3ccccc3c2)NC(C)=O)C(=O)N[C@@H](CC(C)C)C(=O)N[C@@H](CCCCNC(C)C)C(=O)N2CCC[C@H]2C(=O)N[C@H](C)C(N)=O)cc1 [Example 1Q, Ac-β-D-2Nal-D-4Cpa-D-3Pal-Ser-4Aph(carbamoyl)-D-4Aph(Ac)-Leu-Lys(isopropyl)-Pro-D-Ala-NH2] (Ac-[d2Nal][dPhe(4-Cl)][d3Pal]S[Phe(4-NHCONH2)][dPhe(4-NH2)](Ac)L[Lys(iPr)]P[dA]-NH2) | – | – | – | – | – | equal to about values of Acyline | not as effective as Acyline
